Values of other authors, collected in publication PMC10726920 (Cancer Medicine, 2023).

How the values were obtained:
r/r ALL = test system: r/r ALL; parameters: method as in PMID 25724525; details: combined with Hyper‐CVAD; cited from earlier work
ALL at first relapse = test system: ALL at first relapse; parameters: method as in PMID 29603593; details: cited from earlier work
r/r pediatric ALL = details: with cyclophosphamide, etoposide, cited from earlier work
[1] = test system: r/r ALL in second relapse or greater; details: added to intensive chemotherapy, cited from earlier work
lymphoid neoplasms = test system: lymphoid neoplasms; parameters: method as in PMID 22080480; details: cited from earlier work

Which “CR or CRi in patients with only one prior line of therapy” value (r/r ALL) does the source give for CO[C@H]1C[C@@H]2CC[C@@H](C)[C@@](O)(O2)C(=O)C(=O)N2CCCC[C@H]2C(=O)O[C@H]([C@H](C)C[C@@H]2CC[C@@H](OCCO)[C@H](OC)C2)CC(=O)[C@H](C)/C=C(\C)[C@@H](O)[C@@H](OC)C(=O)[C@H](C)C[C@H](C)/C=C/C=C/C=C/1C [Everolimus] here?
The value was “Six of 11”.

What about the “dose‐limiting toxicity” value (r/r ALL) of the same compound?
Its value is “G3 mucositis”.

And the overall response rate (r/r ALL)?
The overall response rate was 33%.

And the patients with meningitis (ALL at first relapse; dose level 3, Two out of twelve)?
Its patients with meningitis is 17%.

What about the “patients obtaining remission (CR2)” value (ALL at first relapse; with multi‐agent chemotherapy, Nineteen of 22) of the same compound?
Its value is 86%.

What about the DLT (ALL at first relapse; with multi‐agent chemotherapy) of the same compound?
The DLT was “elevated liver enzymes in one patient”.

Which results are given for CO[C@H]1C[C@@H]2CC[C@@H](C)[C@@](O)(O2)C(=O)C(=O)N2CCCC[C@H]2C(=O)O[C@H]([C@H](C)C[C@@H]2CC[C@@H](OC(=O)C(C)(CO)CO)[C@H](OC)C2)CC(=O)[C@H](C)/C=C(\C)[C@@H](O)[C@@H](OC)C(=O)[C@H](C)C[C@H](C)/C=C/C=C/C=C/1C [temsirolimus]?
overall response rate (r/r pediatric ALL; 15 patients): 47%; CR or CRi (r/r pediatric ALL): 26%; patients achieving remission ([1]; Seven of 15): 47%; patients with minimal residual disease <0.01% ([1]; three patients): 20%

With COc1cccc2cc(-c3nc([C@H]4CC[C@H](C(=O)O)CC4)n4ncnc(N)c34)[nH]c12 [OSI‐027] as the compound, how does the “sensitivity of ALL across a series of lymphoid neoplasms” value (lymphoid neoplasms) read?
The value was “most sensitive”.
